“And” between values parts separate entries of the source, which are not always exact repeats. Equal entries are not always repeated.
What was measured:
nAChRs [1] = assay type: biochemical, mouse
Experimental: (§1) Neurotransmitter Release from Striatal Synaptosomes. After a mouse was sacrificed by cervical dislocation, its brain was removed and placed immediately on an ice-cold platform and brain regions were dissected. Tissues from each mouse were homogenized in 0.5 ml of ice-cold 0.32 M sucrose buffered with 5 mM HEPES, pH 7.5. A crude synaptosomal pellet was prepared by centrifugation at 12,000 g for 20 min. The pellets were resuspended in “uptake buffer”: 128 mM NaCl, 2.4 mM KCl, 3.2 mM CaCl2, 1.2 mM KH2PO4, 1.2 mM MgSO4, 25 mM HEPES, pH 7.5, 10 mM glucose. For DA uptake, buffer was supplemented with 1 mM ascorbic acid and 0.01 mM pargyline, whereas for GABA uptake, buffer was supplemented with 1 mM aminooxyacetic acid. For [^3H]GABA uptake, synaptosomes were incubated for 10 min at 37° C. […] For DA uptake, synaptosomes were incubated at 37° C. in uptake buffer for 10 min before addition of 100 nM [^3H]dopamine (1 μCi for every 0.2 ml of synaptosomes), and the suspension was incubated for an additional 5 min.
(§2) All experiments were conducted at room temperature using methods described previously (Nashmi et al., 2007; Salminen et al., 2007) with modifications for collection into 96-well plates. In brief, aliquots of synaptosomes (80 μl) were distributed onto filters and perfused with buffer (uptake buffer containing 0.1% bovine serum albumin and 1 μM atropine with 1 μM nomifensine (for DA release) or 0.1 μM NNC-711 [1-(2-(((diphenylmethylene)amino)oxy)ethyl)-1,2,5,6-tetrahydro-3-pyridinecarboxylic acid hydrochloride]) (for GABA release) at 0.7 ml/min for 10 min, or buffer for 5 min followed by buffer with 50 nM αCtxMII. […] Fractions (−0.1 ml) were collected for 4 min into 96-well plates every 10 sec starting from 1 min before stimulation, using a Gilson FC204 fraction collector with a multicolumn adapter (Gilson, Inc.; Middleton, Wis.). Radioactivity was determined by scintillation counting using a 1450 MicroBeta Trilux scintillation counter (Perkin Elmer Life Sciences-Wallac Oy; Turku, Finland) after addition of 0.15 ml Optiphase ‘SuperMix’ scintillation cocktail. Instrument efficiency was 40%.
(§3) Data were analyzed using SigmaPlot 5.0 for DOS. Perfusion data were plotted as counts per minute versus fraction number. Fractions collected before and after the peak were used to calculate baseline as a single exponential decay. The calculated baseline was subtracted from the experimental data. Fractions that exceeded baseline by 10% or more were sunmmed to give total released cpm and then normalized to baseline to give units of release [(cpm-baseline)/baseline]. Agonist dose response data were fit to the Hill equation.

[2] = system: αCtxMII-sensitive receptors (α6*)
α4β2* (non-α6) nAChRs = molecular target: T1, α4β2* (non-α6) nAChRs (Mus musculus, UniProt O70174+Q9ERK7); assay: biochemical; assay type: biochemical
T1 construct: from tissue; host or cells: striatal / olfactory tubercle synaptosomes of WT and α6L9′S mice
T1 sequence (Q9ERK7 26-501): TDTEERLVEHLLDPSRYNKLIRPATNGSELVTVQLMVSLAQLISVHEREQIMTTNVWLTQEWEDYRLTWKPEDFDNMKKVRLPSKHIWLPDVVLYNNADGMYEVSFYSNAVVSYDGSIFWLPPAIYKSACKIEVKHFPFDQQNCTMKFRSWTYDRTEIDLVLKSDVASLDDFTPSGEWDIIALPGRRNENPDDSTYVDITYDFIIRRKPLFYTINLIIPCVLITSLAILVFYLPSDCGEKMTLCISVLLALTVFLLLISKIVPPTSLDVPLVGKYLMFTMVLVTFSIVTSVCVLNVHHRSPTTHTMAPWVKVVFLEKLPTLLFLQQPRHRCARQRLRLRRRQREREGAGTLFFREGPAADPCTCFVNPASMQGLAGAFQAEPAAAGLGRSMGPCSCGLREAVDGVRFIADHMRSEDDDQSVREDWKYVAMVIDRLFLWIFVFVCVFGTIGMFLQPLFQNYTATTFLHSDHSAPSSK
T1 sequence (O70174 31-629): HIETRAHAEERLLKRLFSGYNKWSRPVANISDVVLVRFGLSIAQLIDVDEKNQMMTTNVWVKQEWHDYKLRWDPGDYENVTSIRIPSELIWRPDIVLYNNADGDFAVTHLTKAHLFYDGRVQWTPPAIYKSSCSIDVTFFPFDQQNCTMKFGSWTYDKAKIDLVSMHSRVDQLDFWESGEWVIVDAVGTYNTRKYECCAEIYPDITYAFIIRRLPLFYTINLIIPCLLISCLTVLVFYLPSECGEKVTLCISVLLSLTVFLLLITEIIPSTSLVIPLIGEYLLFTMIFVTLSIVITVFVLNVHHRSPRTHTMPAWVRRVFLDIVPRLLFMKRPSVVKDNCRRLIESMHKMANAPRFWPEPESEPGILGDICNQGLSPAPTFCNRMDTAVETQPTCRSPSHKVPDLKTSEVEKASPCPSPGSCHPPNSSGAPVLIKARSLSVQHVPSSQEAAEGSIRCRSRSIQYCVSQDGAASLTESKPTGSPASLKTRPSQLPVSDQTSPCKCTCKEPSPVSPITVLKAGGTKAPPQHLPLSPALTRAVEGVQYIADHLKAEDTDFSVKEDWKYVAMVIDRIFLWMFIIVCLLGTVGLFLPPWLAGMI
Experimental: as §1, §2, §3

α6* nAChRs [3] = molecular target: T2, α6* nAChRs (Mus musculus, UniProt Q9ERK7+Q9R0W9, L280S); assay: biochemical; assay type: biochemical
T2 construct: from tissue
T2 sequence (Q9ERK7 26-501, stated change not applied): as the sequence (Q9ERK7 26-501) above
T2 sequence (Q8BMN3 31-464, further chain): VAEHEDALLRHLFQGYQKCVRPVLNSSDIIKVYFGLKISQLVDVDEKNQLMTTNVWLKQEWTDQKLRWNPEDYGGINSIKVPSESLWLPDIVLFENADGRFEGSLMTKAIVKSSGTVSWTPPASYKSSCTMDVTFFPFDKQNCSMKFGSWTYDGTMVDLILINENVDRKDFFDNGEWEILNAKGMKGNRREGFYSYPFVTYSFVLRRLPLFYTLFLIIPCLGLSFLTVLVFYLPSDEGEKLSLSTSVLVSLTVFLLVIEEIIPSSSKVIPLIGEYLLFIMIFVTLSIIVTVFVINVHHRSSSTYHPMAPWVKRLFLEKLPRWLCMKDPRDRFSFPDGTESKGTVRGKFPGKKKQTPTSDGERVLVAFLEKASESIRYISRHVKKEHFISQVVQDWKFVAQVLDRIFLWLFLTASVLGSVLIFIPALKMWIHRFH
T2 sequence (Q9R0W9 31-494 L280S): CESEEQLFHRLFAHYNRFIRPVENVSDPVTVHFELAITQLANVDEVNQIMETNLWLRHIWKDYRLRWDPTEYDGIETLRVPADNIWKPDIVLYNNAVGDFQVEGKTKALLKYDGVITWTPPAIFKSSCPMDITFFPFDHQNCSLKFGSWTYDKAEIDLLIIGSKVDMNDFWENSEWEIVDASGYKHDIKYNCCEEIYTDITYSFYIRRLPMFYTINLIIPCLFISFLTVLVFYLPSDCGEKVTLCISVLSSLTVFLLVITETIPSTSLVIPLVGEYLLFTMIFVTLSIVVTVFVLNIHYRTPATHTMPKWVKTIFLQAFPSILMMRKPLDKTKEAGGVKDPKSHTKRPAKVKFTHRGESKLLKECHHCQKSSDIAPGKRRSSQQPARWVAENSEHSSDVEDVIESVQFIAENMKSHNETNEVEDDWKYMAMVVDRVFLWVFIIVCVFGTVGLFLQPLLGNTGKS
Experimental: as §1, §2, §3

α6* nAChRs [4] = molecular target: T3, α6* nAChRs (Mus musculus, UniProt Q9ERK7+Q9R0W9); assay: biochemical; assay type: biochemical
T3 construct: from tissue
T3 sequence (Q9R0W9 31-494): as the sequence (Q9R0W9 31-494 L280S) above, with S250L counted along it
T3 sequence (Q8BMN3 31-464, further chain): as the sequence (Q8BMN3 31-464, further chain) above
T3 sequence (Q9ERK7 26-501): as the sequence (Q9ERK7 26-501) above
Experimental: as §1, §2, §3

[5] = in vivo; cited from earlier work
[6] = molecular target: hypersensitive nicotinic receptors in α6L9′S VTA DA neurons (Mus musculus, UniProt Q9ERK7+Q9R0W9, L280S); assay type: cell-based
Chain of hypersensitive nicotinic receptors in α6L9′S VTA DA neurons (Q9ERK7 whole entry, looked up, stated change not applied): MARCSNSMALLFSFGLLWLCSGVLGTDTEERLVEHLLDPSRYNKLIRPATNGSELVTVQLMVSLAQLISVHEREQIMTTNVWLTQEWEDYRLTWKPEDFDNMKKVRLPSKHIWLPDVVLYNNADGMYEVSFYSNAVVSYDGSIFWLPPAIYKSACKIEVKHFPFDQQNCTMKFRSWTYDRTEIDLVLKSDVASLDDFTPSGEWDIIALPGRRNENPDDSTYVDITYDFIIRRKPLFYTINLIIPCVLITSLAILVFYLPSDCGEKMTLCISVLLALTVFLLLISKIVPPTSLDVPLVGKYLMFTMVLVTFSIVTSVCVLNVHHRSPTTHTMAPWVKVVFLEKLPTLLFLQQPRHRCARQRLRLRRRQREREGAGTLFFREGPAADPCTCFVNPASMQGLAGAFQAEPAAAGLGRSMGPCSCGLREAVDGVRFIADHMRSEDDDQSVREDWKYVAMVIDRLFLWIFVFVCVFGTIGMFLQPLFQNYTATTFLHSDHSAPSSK
Chain of hypersensitive nicotinic receptors in α6L9′S VTA DA neurons (Q9R0W9 whole entry, looked up, stated change not applied): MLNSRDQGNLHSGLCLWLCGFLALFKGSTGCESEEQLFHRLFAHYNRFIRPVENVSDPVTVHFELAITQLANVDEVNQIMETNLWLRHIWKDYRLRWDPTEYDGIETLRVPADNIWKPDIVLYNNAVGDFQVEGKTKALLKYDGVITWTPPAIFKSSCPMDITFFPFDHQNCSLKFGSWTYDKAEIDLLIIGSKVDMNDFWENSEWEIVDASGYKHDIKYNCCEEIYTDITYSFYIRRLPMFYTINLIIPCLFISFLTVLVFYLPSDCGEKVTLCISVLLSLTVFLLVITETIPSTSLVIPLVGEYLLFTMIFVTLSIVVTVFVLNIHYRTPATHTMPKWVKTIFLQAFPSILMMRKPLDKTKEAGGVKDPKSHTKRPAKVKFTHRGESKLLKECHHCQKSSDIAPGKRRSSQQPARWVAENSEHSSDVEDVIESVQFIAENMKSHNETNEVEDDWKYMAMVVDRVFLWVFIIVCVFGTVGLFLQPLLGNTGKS

LC neurons (α6* nAChRs) = assay type: cell-based, mouse
WT and α6^L9′S mice = conditions: mouse, in vivo
α6^L9′S mice = conditions: mouse, in vivo
Experimental: Locomotor Activity. Mice used to study locomotion were eight to sixteen weeks old by the beginning of an experiment, and were back-crossed to C57BL/6 at least three times. […] Mouse horizontal locomotor activity was measured with an infrared photobeam activity cage system (San Diego Instruments; San Diego, Calif.). Ambulation events were recorded when two contiguous photobeams were broken in succession. Acute locomotor activity in response to nicotinic ligands or other agents was studied by recording ambulation events during four 15 sec intervals per minute for a designated number of minutes. For most experiments, groups of eight mice were placed in the activity cages (18×28 cm) and their baseline level of activity was recorded for eight minutes. Mice were removed from their cage, injected (100 μl per 25 g body mass), and returned to the cage within 15 sec. […] For generation of locomotor activity concentration-response relationship profiles, a group of mice was administered saline and, after five to eight days off, each successive dose of drug. […] For 48 h home cage monitoring, mice were isolated in their own cage and habituated to the test room and cage for 24 h. Following this, locomotor activity was recorded in 15 min intervals for 48 h.

[7] = molecular target: αCtxMII-resistant receptors (Mus musculus, UniProt O70174+Q9ERK7)
Chain of αCtxMII-resistant receptors (O70174 31-629, change not shown): as the sequence (O70174 31-629) above
Chain of αCtxMII-resistant receptors (Q9ERK7 26-501, change not shown): as the sequence (Q9ERK7 26-501) above

[8] = system: substantia nigra DA and GABA neurons
α4β2* nAChRs = α4β2* nAChRs (Mus musculus, UniProt O70174+Q9ERK7)
Chain of α4β2* nAChRs (Q9ERK7 26-501): as above
Chain of α4β2* nAChRs (O70174 31-629): as the sequence (O70174 31-629) above
Experimental: as §1, §2, §3

α6* nAChRs [9] = system: α6* nAChRs
Experimental: as §1, §2, §3

nAChRs [10] = molecular target: nAChRs (Mus musculus, UniProt O70174+Q9ERK7)
Chain of nAChRs (Mus musculus, UniProt O70174+Q9ERK7) (Q9ERK7 26-501): as the sequence (Q9ERK7 26-501) above
Chain of nAChRs (Mus musculus, UniProt O70174+Q9ERK7) (O70174 31-629): as the sequence (O70174 31-629) above
Experimental: as §1, §2, §3

[11] = in vivo; cited from earlier work; remark: listed apart in the source

CN1CCCC1c1cccnc1 (single isomer, unassigned) [nicotine]
Rmax (±SEM), Total DA release (nAChRs [1]): 33.1 ± 2.1 and 36.0 ± 1.3 and 34.3 ± 1.7 and 20.9 ± 1.0 and 21.4 ± 0.9 and 20.8 ± 1.2
Total DA release by 10 μM nic (positive control) (nAChRs [1]): 16.69 and 19.68 and 20.65 and 17.70 and 17.30 and 16.70
αCtxMII-sensitive 86Rb+ efflux [2]: hypersensitive to nicotine relative to WT
firing rate in response to local application (VTA DA neurons): significant increase in the firing rate
MII-resistant DA release by 10 μM nic (positive control) (α4β2* (non-α6) nAChRs): 14.55 and 8.75 and 10.78 and 15.07 and 8.91 and 10.26
MII-sensitive DA release by 10 μM nic (positive control) (α6* nAChRs [3]): 8.53 and 5.97 and 10.77 and 10.39
MII-sensitive DA release by 10 μM nic (positive control) (α6* nAChRs [4]): 3.19 and 1.63
Rmax (±SEM), MII-sensitive DA release (α6* nAChRs [4]): 5.41 ± 0.54 and 7.03 ± 0.86
concentration in the cerebrospinal fluid of smokers [5]: ≤ 500 nM
inward currents elicited by puffs of 1 μM [6]: larger than those seen in WT neurons at any concentration
responses to locally applied nicotine in LC neurons (LC neurons (α6* nAChRs)): larger responses
hypothermia response, WT versus α6^L9′S mice (WT and α6^L9′S mice): No difference was found
tolerance or sensitization: change in locomotor behavior after repeated injections (α6^L9′S mice): did not produce any change in locomotor behavior
αCtxMII-resistant 86Rb+ efflux [7]: unchanged
average responses (peak current) in GABA neurons [8]: < 10 pA
responses in WT DA and GABA neurons [8]: undetectable
Rmax (±SEM), MII-resistant GABA release (α4β2* nAChRs): 1.40 ± 0.08 and 1.26 ± 0.08 and 1.30 ± 0.10
EC50 (±SEM), MII-sensitive GABA release (α6* nAChRs [9]): no activity
Rmax (±SEM), MII-sensitive GABA release (α6* nAChRs [9]): no activity
Rmax (±SEM), Total GABA release (nAChRs [10]): 1.64 ± 0.32 and 1.25 ± 0.06 and 1.22 ± 0.11
elimination half life [11]: ~7 min

— patent US20090100532A1, “TRANSGENIC MICE EXPRESSING HYPERSENSITIVE NICOTINIC RECEPTORS” (CALIFORNIA INSTITUTE OF TECHNOLOGY, priority 2007, published 2009)
